According to patent US8497276B2, “Substituted indolo-piperidine compounds” (ArQule, Inc., priority 2009, dated 2013):

Legend:
PACA-2 = test: MTS Assay (cell growth inhibition), PACA-2; type: cell-based; conditions: PACA-2 cells, 72 hours with test compound; concentration not given
Procedure: (§1) Cells were maintained at 37° C., 5% CO2 in DMEM media supplemented with 1% fetal bovine serum, penicillin/streptomycin and fungizone (Invitrogen). Cells were seeded into 96-well tissue culture plates at 3000 per well and cultured at 37° C. for 18 hours. Test compounds were dissolved and diluted to 300× in DMSO then diluted 1:40 in DMEM. Cells were incubated with test compounds for 72 hours followed by incubation with tetrazolium compound (3-(4,5-dimethylthiazol-2-yl)-5-(3-carboxymethoxyphenyl)-2-(4-sulfophenyl)-2H-tetrazolium, inner salt; MTS) and the electron coupling reagent, phenazine methosulfate (PMS) for 4 hours. […] The ability of compounds to inhibit cell growth in this assay is correlated with the reduction of dehydrogenase enzyme activity found in metabolically active cells. The measurement of the absorbance of the formazan was assessed using an ENVISION™ (Perkin Elmer) microplate reader at 492 nm. The calculated IC50 value is the concentration of the test compound that causes a 50% decrease in the absorbance.

Kato III = test: MTS Assay (cell growth inhibition), Kato III; type: cell-based; conditions: Kato III cells, 72 hours with test compound; concentration not given
Procedure: as §1

NCI-H1299 = test: MTS Assay (cell growth inhibition), NCI-H1299; type: cell-based; conditions: NCI-H1299 cells, 72 hours with test compound; concentration not given
Procedure: as §1

PC-3 = test: MTS Assay (cell growth inhibition), PC-3; type: cell-based; conditions: PC-3 cells, 72 hours with test compound; concentration not given
Procedure: as §1

DLD-1 = test: MTS Assay (cell growth inhibition), DLD-1; type: cell-based; conditions: DLD-1 cells, 72 hours with test compound; concentration not given
Procedure: as §1

Tec kinase = target: T1, Tec kinase (Homo sapiens, UniProt P42680); test: Tec Kinase Activity Assay; type: biochemical; conditions: 75 μM ATP, Pyk-2 substrate; compound concentration not given
T1 sequence (P42680 1-631): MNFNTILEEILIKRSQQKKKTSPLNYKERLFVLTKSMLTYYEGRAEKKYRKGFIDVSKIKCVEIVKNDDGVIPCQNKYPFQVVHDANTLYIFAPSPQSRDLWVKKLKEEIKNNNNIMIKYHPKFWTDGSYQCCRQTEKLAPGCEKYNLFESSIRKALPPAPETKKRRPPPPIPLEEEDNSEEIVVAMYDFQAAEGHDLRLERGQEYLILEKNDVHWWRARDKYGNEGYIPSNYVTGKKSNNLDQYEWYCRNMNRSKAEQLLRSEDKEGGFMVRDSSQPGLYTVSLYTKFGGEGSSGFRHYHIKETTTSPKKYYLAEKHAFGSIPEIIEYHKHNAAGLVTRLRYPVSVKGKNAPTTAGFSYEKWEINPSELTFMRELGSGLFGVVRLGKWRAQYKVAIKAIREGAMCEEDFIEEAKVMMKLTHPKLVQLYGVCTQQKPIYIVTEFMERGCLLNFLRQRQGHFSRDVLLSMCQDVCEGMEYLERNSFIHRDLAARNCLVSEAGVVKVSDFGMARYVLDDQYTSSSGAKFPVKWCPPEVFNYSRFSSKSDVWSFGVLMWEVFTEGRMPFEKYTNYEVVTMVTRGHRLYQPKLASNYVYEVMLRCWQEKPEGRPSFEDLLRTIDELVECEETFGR
Procedure: The disclosed compounds were assayed for their ability to inhibit the activity of Tec kinase. Nunc Maxisorb plates were coated with streptavidin by overnight incubation with 100 μl per well of 1 μg/ml Streptavidin in DPBS. Prior to the start of the experiment, the plates were washed with TBST (3×200 μl) and blocked for at least 1 hour by adding 150 μl of 5% BSA/TBST. The plates were then washed with TBST (3×200 μl/well) and left dry immediately before the capture step.
The disclosed test compounds and controls (Staurosporine and Sutent) were prepared using the following assay buffer (50 mM Tris-HCl, 0.02 mg/ml BSA, 10 mM MgCl2, 0.1 mM Na3VO4, 1 mM EGTA, 75 μM ATP, 0.01% NP-40, 2 mM DTT in 10% glycerol/water) at 3× desired final concentration. 20 μl of the test compounds (or control) and 20 μl TEC (0.25 ng/μl) were rapidly added to a reaction plate. The plate was incubated for 30 minutes. 20 μl of Pyk-2 (0.5 ng/μl) was then added to the reaction plate. The plate was incubated at room temperature for two hours.
50 μl was transferred from the reaction plate to the streptavidin coated plate. The capture plate was incubated at room temperature for 30 minutes then washed with TBST 6 times. 100 μl/well of Cell Signaling anti-phospho tyrosine was added to the capture plate at a dilution of 1:3000 in 2% BSA/TBST. The plate was incubated for one hour at room temperature then washed with TBST 6 times. 100 μl/well of alkaline phosphatase tagged goat anti-mouse antibody was added to the capture plate at a dilution of 1:4000 in 2% BSA/TBST. The plate was incubated for one hour at room temperature then washed with TBST 6 times.
The fluorescent readout was initiated by the addition of 100 μl/well of Attophos reagent (6 mg/10 ml) and the reading was done on the Perkin Elmer Envision system.

MDA-MB 231 = test: MTS Assay (cell growth inhibition), MDA-MB 231; type: cell-based; conditions: MDA-MB 231 cells, 72 hours with test compound; concentration not given
Procedure: as §1

Row | SMILES | Biochemical IC50 (% inhibition) Tec (Tec kinase) | MTS cell kill data (% inhibition) PACA-2 (PACA-2) | MTS cell kill data (% inhibition) Kato III (Kato III) | MTS cell kill data (% inhibition) NCI-H1299 (NCI-H1299) | MTS cell kill data (% inhibition) PC-3 (PC-3) | MTS cell kill data (% inhibition) DLD-1 (DLD-1) | MTS cell kill data (% inhibition) MDA-MB 231 (MDA-MB 231)
1 | c1ccc(C2c3[nH]c4ccccc4c3CCN2c2ncnc3[nH]ncc23)cc1 (stereo not drawn) [Compound 26, 1-phenyl-2-(1H-pyrazolo[3,4-d]pyrimidin-4-yl)-2,3,4,9-tetrahydro-1H-beta-carboline] | C (C = <50% inhibition) | B (B = 50-79% inhibition) | B (B = 50-79% inhibition) | B (B = 50-79% inhibition) | C (C = <50% inhibition) | B (B = 50-79% inhibition) | C (C = <50% inhibition)
2 | Fc1ccc(C2c3[nH]c4ccccc4c3CCN2c2ncnc3[nH]ccc23)cc1 (stereo not drawn) [Compound 4, 1-(4-fluorophenyl)-2-(7H-pyrrolo[2,3-d]pyrimidin-4-yl)-2,3,4,9-tetrahydro-1H-beta-carboline] | B (B = 50-79% inhibition) | B (B = 50-79% inhibition) | B (B = 50-79% inhibition) | B (B = 50-79% inhibition) | C (C = <50% inhibition) | B (B = 50-79% inhibition) | C (C = <50% inhibition)
3 | Cc1cccc(C2c3[nH]c4ccccc4c3CCN2c2ncnc3[nH]cnc23)c1 (stereo not drawn) [Compound 11, 1-(3-methylphenyl)-2-(9H-purin-6-yl)-2,3,4,9-tetrahydro-1H-beta-carboline] | C (C = <50% inhibition) | B (B = 50-79% inhibition) | A (A = 80-100% inhibition) | A (A = 80-100% inhibition) | C (C = <50% inhibition) | A (A = 80-100% inhibition) | B (B = 50-79% inhibition)
4 | c1ccc(CC2c3[nH]c4ccccc4c3CCN2c2ncnc3[nH]ccc23)cc1 (stereo not drawn) [Compound 14, 1-benzyl-2-(7H-pyrrolo[2,3-d]pyrimidin-4-yl)-2,3,4,9-tetrahydro-1H-beta-carboline] | C (C = <50% inhibition) | B (B = 50-79% inhibition) | A (A = 80-100% inhibition) | A (A = 80-100% inhibition) | A (A = 80-100% inhibition) | B (B = 50-79% inhibition) | A (A = 80-100% inhibition)
5 | c1ccc(CCC2c3[nH]c4ccccc4c3CCN2c2ncnc3[nH]cnc23)cc1 (stereo not drawn) [Compound 27, 1-(2-phenylethyl)-2-(9H-purin-6-yl)-2,3,4,9-tetrahydro-1H-beta-carboline] | B (B = 50-79% inhibition) | A (A = 80-100% inhibition) | A (A = 80-100% inhibition) | A (A = 80-100% inhibition) | A (A = 80-100% inhibition) | A (A = 80-100% inhibition) | A (A = 80-100% inhibition)

More lines, main results first:

Row | Biochemical IC50 (% inhibition) Tec (Tec kinase) | SMILES | MTS cell kill data (% inhibition) PACA-2 (PACA-2) | MTS cell kill data (% inhibition) Kato III (Kato III) | MTS cell kill data (% inhibition) NCI-H1299 (NCI-H1299) | MTS cell kill data (% inhibition) PC-3 (PC-3) | MTS cell kill data (% inhibition) DLD-1 (DLD-1) | MTS cell kill data (% inhibition) MDA-MB 231 (MDA-MB 231)
6 | C (C = <50% inhibition) | Nc1nc(N2CCc3c([nH]c4ccccc34)C2Cc2ccccc2)c2nc[nH]c2n1 (stereo not drawn) [Compound 16, 6-(1-benzyl-1,3,4,9-tetrahydro-2H-beta-carbolin-2-yl)-9H-purin-2-amine] | C (C = <50% inhibition) | C (C = <50% inhibition) | C (C = <50% inhibition) | C (C = <50% inhibition) | C (C = <50% inhibition) | C (C = <50% inhibition)
7 | C (C = <50% inhibition) | COc1ccc(C2c3[nH]c4ccccc4c3CCN2c2ncnc3[nH]ccc23)cc1 (stereo not drawn) [Compound 30, 1-(4-methoxyphenyl)-2-(7H-pyrrolo[2,3-d]pyrimidin-4-yl)-2,3,4,9-tetrahydro-1H-beta-carboline] | B (B = 50-79% inhibition) | A (A = 80-100% inhibition) | B (B = 50-79% inhibition) | A (A = 80-100% inhibition) | B (B = 50-79% inhibition) | A (A = 80-100% inhibition)
8 | C (C = <50% inhibition) | CC(C)c1ccc(C2c3[nH]c4ccccc4c3CCN2c2nc(N)nc3[nH]cnc23)cc1 (stereo not drawn) [Compound 20, 6-[1-(4-isopropylphenyl)-1,3,4,9-tetrahydro-2H-beta-carbolin-2-yl]-9H-purin-2-amine] | B (B = 50-79% inhibition) | A (A = 80-100% inhibition) | A (A = 80-100% inhibition) | C (C = <50% inhibition) | A (A = 80-100% inhibition) | B (B = 50-79% inhibition)
9 | C (C = <50% inhibition) | CC(C)c1ccc(C2c3[nH]c4ccccc4c3CCN2c2ncnc3[nH]cnc23)cc1 (stereo not drawn) [Compound 19, 1-(4-isopropylphenyl)-2-(9H-purin-6-yl)-2,3,4,9-tetrahydro-1H-beta-carboline] | C (C = <50% inhibition) | C (C = <50% inhibition) | C (C = <50% inhibition) | C (C = <50% inhibition) | C (C = <50% inhibition) | C (C = <50% inhibition)
